Our source for the fibrin generation, platelet thrombus formation and time to occlusion values is US20240366624A1, “METHODS AND COMPOSITIONS FOR TREATING THROMBOTIC DISEASE” (Washington University, priority 2023, published 2024).

One assay has as its system WT (C57BL/6) mice. The experiment in a line: Intravital microscopy, laser-induced cremaster arteriolar injury, WT mice. It counts as in vivo, mouse. The settings on record: iv 5 μg/g BW. The method, then: Intravital microscopy was performed in a mouse model of laser-induced cremaster arteriolar injury as previously described. WT (C57BL/6), littermate WT control, and CKO and KO male mice (8-10 weeks old) were anesthetized with intraperitoneal injection of ketamine and xylazine. The cremaster muscle was exteriorized and superfused with 37° C. bicarbonate-buffered saline throughout the experiment. Arteriolar wall injury was induced by laser ablation (Photonics Instruments) as previously described. Multiple thrombi were generated in at least 3 to 4 different arterioles of 1 mouse, with new thrombi formed upstream of earlier thrombi to minimize any contribution from thrombi generated earlier in the mouse. Platelets and fibrin were visualized by infusion of DyLight 649-conjugated anti-CD42c (0.2 μg/g body weight [BW]) and Alexa Fluor 488-conjugated anti-fibrin (0.2 μg/g BW) antibodies, respectively. To detect extracellular Ero1α, Alexa Fluor 488-conjugated rabbit IgG or nonblocking anti-ERO1α antibodies (0.3 μg/g BW) were injected into WT (C57BL/6), WT control, Ero1α KO, and Ero1α CKO mice. In some experiments, wtERO1α or activity-null ERO1α-Cys94Ser (mutant ERO1α [mERO1α]; 4 μg/g BW) was infused into Ero1α KO mice before imaging. To test the effect of ERO1α inhibitors or blocking anti-ERO1α antibodies, WT (C57BL/6) mice were treated with intravenous injection of vehicle control, eptifibatide (5 μg/g BW), B12-5 (5 μg/g BW), isotype control IgGs, anti-ERO1α (15E9, 1-3 μg/g BW), or anti-PDI (BD34, 3 μg/g BW) 3 minutes before treatment with the anti-CD42c and anti-fibrin antibodies. The same dose of eptifibatide was injected every 20 minutes to maintain the inhibitory effect. […] Fluorescence and bright-field images were captured in 6 to 10 different cremaster arterioles with a diameter of 30 to 45 μm in each mouse and recorded using either an Olympus BX61W microscope with a 60×1.0 salt water immersion objective or a Zeiss Axio Examiner Z1 microscope system with a Yokogawa confocal spinning disk (CSU-W1) equipped with 4 stack laser system (405-, 488-, 561-, and 637-nm wavelengths). Images were collected with a high-speed, high-resolution camera (2304×2304 pixel format; ORCA-Fusion BT sCMOS, Hamamatsu). Time 0 was set to when image capture began on each vessel. The data were analyzed using Slidebook (version 6.0; Intelligent Imaging Innovations). Due to the significant variation between vessels in the same mouse, the result from each vessel was counted as an individual value. Representative images were chosen that most closely resemble the mean values in the quantifications.

A further assay has as its system WT mice. The experiment in a line: FeCl3-induced carotid arterial thrombosis. In kind it is in vivo, mouse. The settings on record: 5 μg/g BW, vs vehicle control. Here is the method: FIG. […]) is an exemplary embodiment of B12-5 having an antithrombotic effect without prolonging tail bleeding times in mice in accordance with the present disclosure. FIG. […]): Ex vivo effects of B12-5. Wild type (WT; […] One hour later, blood was drawn, followed by isolating platelets. P-selectin exposure (FIG. 19A) and αIIbβ3 integrin activation (FIG. 19B) were assessed in flow cytometry. FIG. 19C: Platelet aggregation was measured after treatment with 0.025 U/mL thrombin. The data represent the mean±SD (n=4). FIG. 19D: The plasma levels of B12-5 were analyzed by liquid chromatography-tandem mass spectrometry (LC-MS/MS) after intravenous injection of the compound (5 μg/g BW) into WT mice and quantified by comparison with a standard curve of B12-5 (mean±SD, n=3). FIG. 19E and FIG. 19F: After laser-induced cremaster arteriolar injury, intravital microscopy was conducted with WT mice pretreated with intravenous injection of saline, eptifibatide (5 μg/g BW), vehicle, or B12-5 (5 μg/g BW). The median integrated fluorescence intensities of anti-CD42c (F platelet) and anti-fibrin (F fibrin) antibodies (n=37-42 arterioles in 6 mice per group). Quantification of the antibody signal at a different time point after laser injury. FIG. 19G: Comparison of B12-5 (5 μg/g BW) with eptifibatide (5 μg/g BW) and their respective controls in inhibiting FeCl3-induced carotid artery thrombosis in WT mice. FIG. 19H and FIG. 19I: WT mice were treated with intravenous injection of vehicle control, eptifibatide (5 μg/g BW), or B12-5 (5 μg/g BW). Thirty minutes later, tail bleeding times and Hb contents were measured after amputation of the tail tip. […] Twenty-three hours later, neurological deficits were assessed by the Bederson score and grip test, and infarct volume was measured as described in Methods. […] Twenty-three hours later, the neurological deficit and infarct volume were measured as described above. […] P values determined by unpaired Student t test (FIG. […]), FIG. 19K, and FIG. 19O) or Mann-Whitney U test (FIG. 19(E-1), FIG. 19L, FIG. 19M, FIG. 19P, and FIG. 19Q). […]

“Also recorded” adds a separate entry of the source. Where a SMILES comes first, the peptide text is derived from it. Bridges are numbered along the chain shown (N, C = ends). [ ]: non-standard residue; d: D form. hArg = N=C(N)NCCCC[C@H](N)C(=O)O; Mpa = O=C(O)CCS

Turning to `N=C(N)NCCCC[C@@H]1NC(=O)CCSSC[C@@H](C(N)=O)NC(=O)[C@@H]2CCCN2C(=O)[C@H](Cc2c[nH]c3ccccc23)NC(=O)[C@H](CC(=O)O)NC(=O)CNC1=O` [eptifibatide, reference compound] ([Mpa][hArg]GDWPC-NH2; disulfide 1-7), in the assay on WT (C57BL/6) mice, the fibrin generation result was “without reducing; also recorded: without affecting” and the platelet thrombus formation result is given as “inhibit”. In addition, the time to occlusion result with WT mice is “significantly prolonged”.
